Test results from PMC9585581, “Developing Photoaffinity Probes for Dopamine Receptor D2 to Determine Targets of Parkinson’s Disease Drugs” (ACS Chemical Neuroscience, 2022).
Each block holds one compound with its values, some of them ahead of it.

Experiments:
human DRD2, long form = biological target: T1, human DRD2, long form (Homo sapiens, UniProt P14416); assay: Intracellular Ca2+ mobilization assay (HEK293T stably expressing DRD2, chimeric G-protein Gqi5, calcium dye, confocal microscopy); type: cell-based; details: for activity in calcium flux assay (in words): calcium flux bioactivity
T1 construct: expressed in transfected cells; Gqi5 chimera transiently transfected
T1 sequence (P14416 whole entry): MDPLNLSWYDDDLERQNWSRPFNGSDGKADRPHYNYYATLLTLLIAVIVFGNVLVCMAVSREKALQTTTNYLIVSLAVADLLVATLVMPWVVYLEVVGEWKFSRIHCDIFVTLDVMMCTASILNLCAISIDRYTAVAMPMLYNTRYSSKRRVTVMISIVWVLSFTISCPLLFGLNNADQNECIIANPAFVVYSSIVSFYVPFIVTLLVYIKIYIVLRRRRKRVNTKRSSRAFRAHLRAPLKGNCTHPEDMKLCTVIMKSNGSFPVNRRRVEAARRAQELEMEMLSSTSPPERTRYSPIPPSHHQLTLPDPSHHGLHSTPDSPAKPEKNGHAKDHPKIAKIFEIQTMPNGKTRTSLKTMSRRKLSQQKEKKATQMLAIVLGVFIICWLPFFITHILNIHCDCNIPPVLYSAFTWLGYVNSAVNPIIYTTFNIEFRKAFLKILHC
Method: Intracellular calcium measurement was used to determine G-protein-mediated signaling by DRD2. Because DRD2 is linked to the G-protein subtype Gi, agonist binding inhibits adenyl cyclase activity.[42] To mitigate this effect, we created an HEK293T cell line stably expressing human DRD2, long form, and a chimeric G-protein, Gqi, which alters the DRD2 receptor’s G-protein coupling so that signaling can occur through Gq, resulting in an intracellular calcium flux.[43] The assay is performed by first loading the cell line with a calcium-sensing dye. Binding of the ligand to the receptor results in an influx of calcium to the cytoplasm, which can be characterized in real time by monitoring the increase in dye fluorescence with confocal microscopy.
Figure 2 Intracellular calcium flux assay. HEK293T cell line stably expressing constructs for human DRD2 and a chimeric G-protein is loaded with calcium-sensing dye, […]. After dosing the probe, confocal microscopy is used to determine the calcium flux in the cell by change in dye fluorescence.
A stable HEK293T-derived cell line-expressing DRD2-Strep Tag II fusion was maintained in DMEM supplemented with 10% FBS, 100 U/mL penicillin, and 100 μg/mL streptomycin in a humidified atmosphere at 37 °C in 5% CO2. On day 1, cells were plated at a density of 4 × 10^4 cells/cm^2 in a poly-D-lysine-coated 18-well chambered coverslip (Ibidi). The following day (day 2), cells were transfected with a 10× solution of 3:1 mixture of Gqi5/Optifect Transfection Reagent (Thermo) in unsupplemented DMEM. On day 3, the transfection media was removed and calcium-sensitive dye loading was performed following the protocol of the Fluo-4 Direct Calcium Assay Kit (Invitrogen). 5× drug stimulation solutions were prepared in filter-sterilized HBSS. Once Fluo-4 loading was complete, a time series acquisition at a rate of 1 fps was recorded using a Zeiss LSM 980 with Airyscan 2. Basal fluorescence was recorded for 20 s, followed by the addition of drug solution to a 1× final concentration and acquisition for an additional 40 s. Results in the form of fold fluorescence increase over basal were averaged over 50 cells in ImageJ (NIH), and GraphPad Prism was used for the analysis of data.

DRD2 [1] = biological target: T2, DRD2 (Homo sapiens, UniProt P14416); assay: Western blot analysis of DRD2-probe binding with competition by parent pharmacophore; parameters: expressed in transfected cells; details: probe 100 nm; membrane fraction enriched via Strep Tag II
T2 sequence (P14416 whole entry, the tested form may be a part): as the sequence (P14416 whole entry) above
Source text: To observe the photo-cross-linking of DRD2 at the protein level, we analyzed the colocalization of DRD2 by clicking a fluorophore on the probe and performing Western blots. We further observed the competition with the parent pharmacophore of each probe and the ability of a negative control benzophenone (16) to cross-link to DRD2. Our DRD2-expressing cells or unmodified 293T cells (control group) were suspended in media, treated with the probe at a 100 nm concentration, and photo-cross-linked. The cells were then lysed, and the membrane fraction was separated and enriched for DRD2 by pulldown of the Strep Tag II fusion using magnetic beads. After “clicking” a fluorescent tag to the probe, the membrane fraction was run on an SDS-PAGE gel, transferred to a nitrocellulose membrane, and treated with antibodies against DRD2 and Strep Tag II. […] We also observed many nonspecific binding bands for the probe, which is consistent with our other studies, as well as the observations of the field when it relates to photo-cross-linking groups. […] With this confirmation, we proceeded to proteomic analysis of probe interactions.
Figure 6 Photo-cross-linking of probes 5 and 7 to DRD2 visualized with Western blot. Lanes 1–5 correspond to samples with probe 5 at 100 nm, lanes 6–10 correspond to samples treated with probe 7 at 100 nm, and lanes 11–14 correspond to samples treated with negative control probe 16. Lanes: 1, 6, and 11 are the anti-DRD2 antibody channel, lanes 2, 3, 7, 8, and 12 are fluorescence of the Alexa Fluor 555 clicked to the probes 5, 7, or 16, lanes 4, 9, and 13 are the anti-Strep Tag antibody channel, and lanes 5, 10, and 14 are the overlaid channels for the respective probes.
A stable HEK293T-derived cell line-expressing DRD2-Strep Tag II fusion was maintained in DMEM supplemented with 10% FBS, 100 U/mL penicillin, and 100 μg/mL streptomycin in a humidified atmosphere at 37 °C in 5% CO2. Cells were plated at a density of 4 × 10^4 cells/cm^2 in T300 tissue culture flasks (CellTreat) and allowed to grow to an 80% confluency. At confluency, media was removed and cells were washed once with cold HBSS, followed by incubation for 15 min in cold HBSS with 0.53 mM EDTA. Following incubation, cells were scraped off of the bottom of the flask and the cell suspension was transferred to a 15 mL conical tube and then pelleted at 500g for 5 min. The supernatant was removed, and the cell pellet was resuspended in HBSS followed by centrifugation at 500g for 5 min. […] The supernatant of the cell pellet was removed, and the cells were resuspended in probe solution and incubated at room temperature for 2 min followed by centrifugation at 500g for 5 min. The cell pellet was resuspended in either HBSS or 50 μM competitor solution in HBSS and irradiated with a 365 nm UV lamp (8 W, 2 cm distance) for 30 min at room temperature. The cells were then pelleted at 500g for 5 min, and the supernatant was removed. Membrane fractionation was performed following the MEM-PER Membrane Protein Extraction Kit (Thermo). The solubilized membrane fraction was incubated with hydrophilic streptavidin magnetic beads (NEB) for 1 h at room temperature. The flow-through was removed, and the beads were washed twice with PBS. […]

DRD2 [2] = biological target: T2, DRD2; assay: PRESTO-TANGO β-arrestin recruitment assay (HTLA cells transfected with DRD2-TANGO, luciferase readout); type: cell-based; parameters: TEV protease site and fused transcription factor (TANGO module); expressed in transfected cells; host or cells: HTLA cells (gift of G. Barnea), transiently transfected; details: for activity in β-arrestin recruitment (in words): PRESTO-TANGO
Source text: To characterize the response of the β-arrestin effector pathway to our ligands, we used the Parallel-Receptor-ome Expression and Screening via Transcriptional Output TANGO (PRESTO-TANGO) assay developed in the Roth lab.[44],[45] This assay uses luciferase activity to monitor β-arrestin recruitment by DRD2 (Figure 3a).
Figure 3 β-Arrestin recruitment analysis. (a) PRESTO-TANGO assay schematic: a ligand binds a chimeric DRD2 receptor, which then recruits β-arrestin fused with a TEV protease. The protease cuts a site between the receptor and a fused transcription factor, which then transits to the […] to initiate transcription of a luciferase gene. The luciferase activity is subsequently quantified.
HTLA cells were a gift from the laboratory of G. Barnea and were maintained in DMEM supplemented with 10% FBS, 100 U/mL penicillin, 100 μg/mL streptomycin, 2 μg/mL puromycin, 100 μg/mL hygromycin B, and 100 μg/mL G418 in a humidified atmosphere at 37 °C in 5% CO2. On day 1, cells were plated at a density of 1 × 10^5 cells/cm^2 in a black wall, clear-bottom 96-well plate (Nunc). The following day (day 2), cells were transfected with a 10× solution of 3:1 mixture of DRD2-TANGO/Optifect Transfection Reagent (Thermo) in unsupplemented DMEM. On day 3, 1× drug stimulation solutions were prepared in filter-sterilized unsupplemented DMEM. The transfection media was shaken or aspirated from the wells, and drug stimulation solutions were gently added. On day 4, drug solutions were removed from one well every 10 s (to maintain consistency of incubation time) and 50 μL per well of Bright-Glo solution (Promega) diluted 20-fold in HBSS was added. After incubation for 2 min at room temperature, luminescence was counted with an integration time of 10 s in a Spectramax i3x plate reader (Molecular Devices).

[3] = cited from earlier work
Dopamine receptor D1 = details: stated without reference; cited from earlier work

SMILES: C#CCCC1(CCC(=O)N(CCC)CCc2cccc3c2CC(=O)N3)N=N1 [Compound 4, 3-(3-(But-3-yn-1-yl)-3H-diazirin-3-yl)-N-(2-(2-oxoindolin-4-yl)ethyl)-N-propylpropanamide]
activity in calcium flux assay (in words) (human DRD2, long form): greatly diminished activity

SMILES: C#CCOc1ccc(C(=O)c2ccc(CN)cc2)cc1 [Compound 16, reference compound]
photo-cross-linking / colocalization with DRD2 band (Western blot) (DRD2 [1]): did not show colocalization with the DRD2 band

SMILES: CCCN(CCC)CCc1cccc2c1CC(=O)N2 [ropinirole, reference compound]
activity in β-arrestin recruitment (in words) (DRD2 [2]): low nanomolar activity | EC50 (DRD2 [2]; PRESTO-TANGO β-arrestin recruitment, luciferase activity, Hill slope of 1.0): 6.14 nM | EC50 (human DRD2, long form; Ca assay, HEK293T stably expressing human DRD2 and chimeric G-protein, Hill slope of 1.0): 124 nM

More lines, main results first:

activity in calcium flux assay (in words) (human DRD2, long form): greatly diminished activity
SMILES: C#CCCC1(CCC(=O)N[C@H]2CCc3nc(N)sc3C2)N=N1 [Compound 8, (S)-N-(2-Amino-4,5,6,7-tetrahydrobenzo[d]thiazol-6-yl)-3-(3-(but-3-yn-1-yl)-3H-diazirin-3-yl)propanamide]

activity in β-arrestin recruitment (in words) (DRD2 [2]): low nanomolar activity
SMILES: CCCN[C@H]1CCc2nc(N)sc2C1 [pramipexole]
patients experiencing adverse drug reactions [3]: ≤ 74% | binding to dopamine receptor D1 (in words) (Dopamine receptor D1): bound poorly
